Columns and labels:
Trypanosoma cruzi [1] = assay: Antitrypanosomal activity against epimastigote stage of Trypanosoma cruzi Y assessed as parasite growth inhibition at 10 ug/mL after 72 hrs by spectrophotometric analysis relative to control; format: functional; conditions: read-out: GI
Trypanosoma cruzi [2] = assay: Antitrypanosomal activity against epimastigote stage of Trypanosoma cruzi Y assessed as parasite growth inhibition at 20 ug/mL after 72 hrs by spectrophotometric analysis relative to control; format: functional; conditions: read-out: GI
Trypanosoma cruzi [3] = assay: Antitrypanosomal activity against epimastigote stage of Trypanosoma cruzi Y assessed as parasite growth inhibition at 50 ug/mL after 72 hrs by spectrophotometric analysis relative to control; format: functional; conditions: read-out: GI
[4] = Genotoxicity in human bronchial epithelial cells assessed as increase of micronucleated cells at 50 ug/mL after 24 hrs by acridine orange staining-based fluorescence microscopic analysis; format: toxicity; conditions: epithelial cell

Structure (SMILES)	inhibition of growth at 10 µg/mL (Trypanosoma cruzi [1])	inhibition of growth at 20 µg/mL (Trypanosoma cruzi [2])	inhibition of growth at 50 µg/mL (Trypanosoma cruzi [3])	Activity [4]
O=C(N/N=C/c1ccc2c(c1)no[n+]2[O-])c1ccc(Cl)c(Cl)c1	51%	81%	75%	
O=C(N/N=C/c1ccc2c(c1)no[n+]2[O-])c1ccc([N+](=O)[O-])c(C(F)(F)F)c1	54%	82%	82%	
O=C(N/N=C/c1ccc2c(c1)no[n+]2[O-])c1ccc(Cl)cc1Cl	42%	72%	89%	
O=C(N/N=C/c1ccc2c(c1)no[n+]2[O-])c1ccc([N+](=O)[O-])cc1	13%	73%	73%	
CCc1ccc(C(=O)N/N=C/c2ccc3c(c2)no[n+]3[O-])cc1	47%	76%	85%	
CCOc1ccc(C(=O)N/N=C/c2ccc3c(c2)no[n+]3[O-])cc1	32%	68%	66%	
Cc1ccc(C(=O)N/N=C/c2ccc3c(c2)no[n+]3[O-])cc1	34%	62%	76%	
O=C(N/N=C/c1ccc2c(c1)no[n+]2[O-])c1ccc(Br)cc1	44%	76%	58%	
O=C(N/N=C/c1ccc2c(c1)no[n+]2[O-])c1ccc(Cl)cc1	54%	83%	62%	Non-toxic
CC(=O)c1ccc(C(=O)N/N=C/c2ccc3c(c2)no[n+]3[O-])cc1	14%	34%	83%	
O=C(N/N=C/c1ccc2c(c1)no[n+]2[O-])c1ccccc1	46%	82%	95%	Non-toxic
Nc1ccc(C(=O)N/N=C/c2ccc3c(c2)no[n+]3[O-])cc1	7%	24%	42%	
N#Cc1ccc(C(=O)N/N=C/c2ccc3c(c2)no[n+]3[O-])cc1	8%	39%	44%	
O=C(N/N=C/c1ccc2c(c1)no[n+]2[O-])c1ccc(O)cc1	0%	3%	47%	
O=C(N/N=C/c1ccc2c(c1)no[n+]2[O-])c1ccc(F)cc1	45%	79%	78%	
O=C(N/N=C/c1ccc2c(c1)no[n+]2[O-])c1ccc(I)cc1	54%	81%	60%	
O=C(N/N=C/c1ccc2c(c1)no[n+]2[O-])c1ccc(C(F)(F)F)cc1	65%	86%	82%	Non-toxic
COc1ccc(C(=O)N/N=C/c2ccc3c(c2)no[n+]3[O-])cc1	36%	69%	76%	
CN(C)c1ccc(C(=O)N/N=C/c2ccc3c(c2)no[n+]3[O-])cc1	4%	7%	10%	
NS(=O)(=O)c1ccc(C(=O)N/N=C/c2ccc3c(c2)no[n+]3[O-])cc1	5%	9%	12%	
O=C(Cn1ccnc1[N+](=O)[O-])NCc1ccccc1 [BENZNIDAZOLE]	44%	66%	77%	

— ChEMBL document CHEMBL3217488, “Preliminary in vitro evaluation of N-(benzofuroxan-5-yl)methylene benzohydrazide derivatives as potential anti-Trypanosoma cruzi agents” (Medchemcomm, 2012)
